We go through nine compounds from patent US9023816B2, “Bioactive alkaloid compositions and their medical uses” (Asiros A/S, priority 2013, dated 2015).

For experiment [1], the target named is T1, phosphodiesterase 4 (PDE4), PDE4A1A (Homo sapiens, UniProt P27815).
T1 construct: purchased BSP Bioscience 60340
The experiment is described as follows: PDE4A1A Assay Kit, fluorescence polarization. Format: biochemical. Here is the method:
Inhibition of PDE4 blocks hydrolysis of cAMP, thereby increasing levels of cAMP. The PDE4A1A Assay Kit is designed for identification of PDE4A1A inhibitors using fluorescence polarization. The assay is based on the binding of fluorescent AMP generated by PDE4A1A to the binding agent.
The assay was performed according to the protocol of the PDE4A1A assay provided by BSP Bioscience [BSP Bioscience, Data sheet PDE4A1A Assay Kit, Catalog #60340].
(§1) A fluorescence plate reader (Appliskan, Thermo Scientific) was used to detect fluorescence emission signals according to the following parameters:
(§2) Selected alkaloids of the invention prepared in example 1 were tested in 5 times dilutions to establish the 50% inhibitory concentration (IC-50).
Background: In fluorescence polarisation assays a small probe gives low polarisation when free and higher when bound to something large.

For experiment [2], the target named is T2, phosphodiesterase 5A (PDE5) (Homo sapiens, UniProt O76074).
T2 construct: purchased BSP Bioscience 60350
As to the kind of experiment: PDE5A Assay Kit, fluorescence polarization. Format: biochemical. Here is the method:
Inhibition of PDE5 blocks hydrolysis of cGMP, thereby increasing levels of cGMP. The PDE5A Assay Kit is designed for identification of PDE5A inhibitors using fluorescence polarization. The assay is based on the binding of a fluorescent nucleotide monophosphate generated by PDE5A to the binding agent.
The assay was performed according to the protocol of the PDE5A assay provided by BSP Bioscience [BSP Bioscience, Data sheet PDE5A Assay Kit, Catalog #60350].
as §1, §2

For the next experiment, the target named is T3, IkappaB kinase β (IKK-β) (Homo sapiens, UniProt O14920).
T3 construct: purchased Invitrogen
T3 sequence (O14920 1-756): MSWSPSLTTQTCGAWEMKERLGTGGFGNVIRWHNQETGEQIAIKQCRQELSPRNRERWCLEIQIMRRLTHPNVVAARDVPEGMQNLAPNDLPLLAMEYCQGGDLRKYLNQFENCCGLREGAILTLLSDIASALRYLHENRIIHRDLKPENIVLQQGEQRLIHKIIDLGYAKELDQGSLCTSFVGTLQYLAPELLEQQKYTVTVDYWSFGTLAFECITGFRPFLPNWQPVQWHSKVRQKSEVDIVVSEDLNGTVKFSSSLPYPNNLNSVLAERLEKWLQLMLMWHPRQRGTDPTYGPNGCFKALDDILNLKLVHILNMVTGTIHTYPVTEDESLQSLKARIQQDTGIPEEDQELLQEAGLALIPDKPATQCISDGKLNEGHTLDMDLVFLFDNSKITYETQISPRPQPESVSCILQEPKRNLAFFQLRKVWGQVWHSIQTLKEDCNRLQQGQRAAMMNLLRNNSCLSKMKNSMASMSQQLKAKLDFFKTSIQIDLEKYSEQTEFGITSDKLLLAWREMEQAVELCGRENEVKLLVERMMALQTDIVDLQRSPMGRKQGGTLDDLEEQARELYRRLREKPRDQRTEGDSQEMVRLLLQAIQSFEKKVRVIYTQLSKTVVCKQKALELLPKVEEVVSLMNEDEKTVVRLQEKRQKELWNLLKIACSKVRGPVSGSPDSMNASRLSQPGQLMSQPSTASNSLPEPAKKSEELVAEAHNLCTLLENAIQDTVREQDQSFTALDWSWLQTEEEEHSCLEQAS
The experiment is described as follows: IKK-β inhibition, Z'-LYTE Kinase Assay Kit Ser/Thr 5 Peptide (FRET). The class given is biochemical. Here is the method:
IKK-β phosphorylates the inhibitory IκB protein associated with NF-κB. Phosphorylation results in the dissociation of IκB from NF-κB, allowing NF-κB to migrate into the cell nucleus where it can activate the transcription of at least 150 genes. The Z9-LYTE™ Kinase Assay Kit—Ser/Thr 5 Peptide is designed to screen for potential IKK-β inhibitory effect using fluorescence resonance energy transfer (FRET) between coumarin and fluorescein for detection by a fluorometer.
The assay was performed according to Z9-LYTE™ KINASE ASSAY KIT—SER/THR 5 PEPTIDE protocol provided by Invitrogen [Invitrogen, Z′-LYTE™ Kinase Assay Kit—Ser/Thr 5 Peptide Protocol, O-062187-r1 US 0405]. Based on the IKK-β certificate of the kit, a kinase concentration of 500 ng/ml was chosen. Km for ATP 9.4 μM was chosen according to an optimization for the LanthaScreen™ kinase assay [http://tools.invitrogen.com/content/sfs/manuals/IKBKB_%28IKK_beta %29_LanthaScreen_Activity.pdf].
as §1, §2

Experiment [3] relates to hyperlipidemic guinea pigs. As to the kind of experiment: Hypocholesterolemic effect in hyperlipidemic guinea pigs induced by high fat diet. The class given is in vivo, guinea pig. Particulars: 10 mg/kg oral once daily, 28 days. Here is the method:
Male Dunkin-Hartley guinea pigs weighing 300+/−30 g were acclimated one week before the in-life phase of the experiment. The study diet (Research Diets Inc, New Brunswick, N.J., USA) contained 15% corn oil and 0.25% cholesterol. A daily oral dose of 2000 mg/kg of RAP2 corresponding 9 μg/kg of Ribetril A and 82 μg/kg total Ribetrils as well as 632 μg/kg total Glucoindols was administered orally at a dosing volume of 10 mL/kg. A daily oral dose of 2000 mg/kg of RAP4 corresponding to 112 μg/kg of Ribetril A and 492 μg/kg total Ribetrils as well as 240 μg/kg total Glucoindols was administered orally at a dosing volume of 10 mL/kg. The positive control atorvastatin (10 mg/kg) and vehicle (0.5% methylcellulose) were each administered orally at a dosing volume of 10 mL/kg. […]
After fasting overnight, blood samples were obtained from the retro-orbital sinus of each animal 5 min before initial test substance and/or vehicle administration (pre-treatment) and 24 hours after dosing on days 14 and 28 (post-treatment). The serum total cholesterol (TC), low density lipoprotein cholesterol (LDL-C), high density lipoprotein cholesterol (HDL-C) and triglycerides (TG) were determined by an enzymatic method (Wako total cholesterol, LDL-C, HDL-C & TG diagnostic kit and Toshiba Automatic Analyzer Model TAB-120FR).

For experiment [4], the system named is BKS Cg-Lepr db/Lepr db mice. The experiment is described as follows: Hypoglycemic effect in BKS Cg-Lepr db/Lepr db mice (NIDDM model). The class given is in vivo, mouse. Particulars: 300 mg/kg oral daily, day 14 post dosing. The protocol: Male non-insulin dependent diabetic mellitus (NIDDM) mice (BKS Cg-Lepr db/Lepr db) weighing 50+/−5 g were used at age of 12-13 weeks. A daily oral dose of 2000 mg/kg of RAP4 corresponding to corresponding to 112 μg/kg of Ribetril A and 492 μg/kg total Ribetrils as well as 240 μg/kg total Glucoindols was administered orally at a dosing volume of 10 mL/kg to 12 animals for a total of 14 consecutive days. The positive control of metformin (300 mg/kg) and vehicle (2% Tween 80) were each administered orally at a dosing volume of 10 mL/kg to groups of 6 animals once daily for a total of 14 consecutive days. Serum glucose levels were measured by means of an automated analyzer (TBA-120FR, Toshiba) and serum insulin by ELISA at zero min (pre-treatment) on Day 1, and at 90 min after the daily dosing (post-treatment) on Day 7 and Day 14.

Where [5] appears, read: read-out: Inhibitory effect on PDE4 IC-50.
The mark [6] stands for this setting: read-out: Inhibitory effect on PDE5 IC-50.
[7] abbreviates: read-out: Inhibitory effect on IKK-β IC-50.

Like-named read-outs stand apart in the source and are kept apart here.

T1 sequence (P27815 1-647 isoform P27815-4): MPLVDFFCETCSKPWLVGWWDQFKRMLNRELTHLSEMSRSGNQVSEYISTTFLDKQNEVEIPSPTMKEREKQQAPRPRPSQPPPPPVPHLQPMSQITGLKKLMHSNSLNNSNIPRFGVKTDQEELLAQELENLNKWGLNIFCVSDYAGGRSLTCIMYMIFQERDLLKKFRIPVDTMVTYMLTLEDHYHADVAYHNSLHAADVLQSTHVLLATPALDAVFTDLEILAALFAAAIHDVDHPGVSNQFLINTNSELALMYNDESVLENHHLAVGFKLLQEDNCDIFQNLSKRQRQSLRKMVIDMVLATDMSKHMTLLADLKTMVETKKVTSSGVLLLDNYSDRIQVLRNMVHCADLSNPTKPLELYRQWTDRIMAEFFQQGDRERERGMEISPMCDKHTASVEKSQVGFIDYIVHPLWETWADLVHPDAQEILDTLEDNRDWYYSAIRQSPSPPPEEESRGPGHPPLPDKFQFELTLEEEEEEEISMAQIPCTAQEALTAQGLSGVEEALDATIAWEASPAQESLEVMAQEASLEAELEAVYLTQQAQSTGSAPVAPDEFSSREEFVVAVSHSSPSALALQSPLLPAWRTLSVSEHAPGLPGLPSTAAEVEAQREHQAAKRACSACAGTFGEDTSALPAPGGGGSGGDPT

As to `O=C(O)Cc1cn([C@@H]2O[C@H](CO)[C@@H](O)[C@H](O)[C@H]2O)c2ccccc12` [Glucoindol A, 2-(1-((2R,3R,4S,5S,6R)-3,4,5-trihydroxy-6-(hydroxymethyl)tetrahydro-2H-pyran-2-yl)-1H-indol-3-yl)acetic acid], in experiment [1] (setting [5]), the IC50 was 86.1 µM.
In the case of `COC(=O)Cc1cn([C@@H]2O[C@H](CO)[C@@H](O)[C@H](O)[C@H]2O)c2ccccc12` [Glucoindol B, methyl 2-(1-((2R,3R,4S,5S,6R)-3,4,5-trihydroxy-6-(hydroxymethyl)tetrahydro-2H-pyran-2-yl)-1H-indol-3-yl)acetate], the IC50 in experiment [1] (setting [5]) was 45.6 µM.
With `N#C/C(=C\CO[C@@H]1O[C@H](CO)[C@@H](O)[C@H](O)[C@H]1O)COC(=O)/C=C/c1ccc(O)c(O)c1` [Ribetril A, (E)-(E)-2-cyano-4-(((2R,3R,4S,5S,6R)-3,4,5-trihydroxy-6-(hydroxymethyl)tetrahydro-2H-pyran-2-yl)oxy)but-2-en-1-yl 3-(3,4-dihydroxyphenyl)acrylate], the figures for the IC50 (in experiment [2] (setting [6]); on IkappaB kinase β (IKK-β) (setting [7]); in experiment [1] (setting [5])) were 2.1 µM, 0.13 µM and 2.95 µM, respectively. Besides, the “times lower IC-50 as compared to Ribetril B (PDE5)” value in experiment [2] (vs Ribetril B) turned out to be 3 times. Also, in experiment [2] (vs Ribetril C), the “times lower IC-50 as compared to Ribetril C (PDE5)” value is 8 times. In addition, the “times lower IC-50 as compared to Ribetril B (IKK-β)” value at IkappaB kinase β (IKK-β) (vs Ribetril B) worked out at 48 times. The “times lower IC-50 as compared to Ribetril C (IKK-β)” value at IkappaB kinase β (IKK-β) (vs Ribetril C) worked out at 118 times. Moreover, the “times lower IC-50 as compared to Ribetril B (PDE4)” value in experiment [1] (vs Ribetril B) worked out at 5 times. Besides, in experiment [1] (vs Ribetril C), the “times lower IC-50 as compared to Ribetril C (PDE4)” value was found to be 20 times.
Turning to `COc1cc(/C=C/C(=O)OC/C(C#N)=C/CO[C@@H]2O[C@H](CO)[C@@H](O)[C@H](O)[C@H]2O)ccc1O` [Ribetril B, (E)-(E)-2-cyano-4-(beta-D-glucopyranosyloxy)but-2-en-1-yl 3-(4-hydroxy-3-methoxyphenyl)acrylate], the IC50 in experiment [2] (setting [6]) came out at 5.4 µM; on IkappaB kinase β (IKK-β) (setting [7]), 6.3 µM; in experiment [1] (setting [5]), 14 µM.
Consider `N#C/C(=C\CO[C@@H]1O[C@H](CO)[C@@H](O)[C@H](O)[C@H]1O)COC(=O)/C=C/c1ccc(O)cc1` [Ribetril C, (E)-(E)-2-cyano-4-(beta-D-glucopyranosyloxy)but-2-en-1-yl 3-(4-hydroxyphenyl)acrylate], for which the IC50 worked out at 17.2 µM in experiment [2] (setting [6]), 15.3 µM on IkappaB kinase β (IKK-β) (setting [7]) and 59.7 µM in experiment [1] (setting [5]).
For `COc1cc(C(=O)OC/C(C#N)=C/CO[C@@H]2O[C@H](CO)[C@@H](O)[C@H](O)[C@H]2O)ccc1O` [Ribetril D, (E)-2-cyano-4-(beta-D-glucopyranosyloxy)but-2-en-1-yl 4-hydroxy-3-methoxybenzoate], the IC50 was less than 0.04 µM in experiment [2], 0.037 µM at IkappaB kinase β (IKK-β) and 0.23 µM in experiment [1].
`N#C/C(=C\CO[C@@H]1O[C@H](CO)[C@@H](O)[C@H](O)[C@H]1O)COC(=O)c1ccc(O)cc1` [Ribetril E, (E)-2-cyano-4-(beta-D-glucopyranosyloxy)but-2-en-1-yl 4-hydroxybenzoate]: the IC50 was found to be 3.4 µM in experiment [2] (setting [6]), 1.9 µM at IkappaB kinase β (IKK-β) (setting [7]) and 3.5 µM in experiment [1] (setting [5]).
As for `CC(C)c1c(C(=O)Nc2ccccc2)c(-c2ccccc2)c(-c2ccc(F)cc2)n1CC[C@@H](O)C[C@@H](O)CC(=O)O` [atorvastatin], the “triglyceride reduction” value in experiment [3] is “did not significantly reduce triglycerides”.
For the compound `CN(C)C(=N)N=C(N)N` [metformin], the “serum glucose levels relative to vehicle control” value in experiment [4] is “significant decrease”.
